pIC50: −log10 of the molar value. Read-outs that look alike come from different tables or passages of the source.
Experiments:
[1] = system: T. gondii; details: cited from earlier work
[2] = system: N. caninum; details: 50 mg/kg/day for 6 days; ref Winzer et al., 2015; cited from earlier work
[3] = system: T. gondii oocysts; parameters: method as in Müller et al., 2017b; details: 50 mg/kg/day for 5 days; ref Müller et al., 2017b; cited from earlier work
[4] = system: Nc-β-gal tachyzoites; test: In vitro proliferation assay with N. caninum β-gal tachyzoites in HFF monolayers; assay type: cell-based, Neospora caninum; details: read at 72 h post-infection
Protocol: (§1) N. caninum strain NcSpain-7 and the transgenic strain N. caninum Nc1 expressing β-galactosidase (Nc-β-gal) were grown and maintained in HFF ([Aguado-Martínez et al., 2016]). T. gondii ME49 and T. gondii β-gal tachyzoites (RH background, Tg-β-gal) were cultured as previously described ([Winzer et al., 2015]). T. gondii oocysts of the type II isolate T. gondii sheep Spain 1 (TgShSp1) were generated at the Complutense University of Madrid, Spain, and were stored at 4 °C ([Sánchez-Sánchez et al., 2019]).
(§2) The effects of the compound on HFF viability were assessed by resazurin reduction assay, following the protocols of previous studies ([Anghel et al., 2020]).

[5] = system: Tg-β-gal tachyzoites; test: In vitro proliferation assay with T. gondii β-gal tachyzoites in HFF monolayers; assay type: cell-based, Toxoplasma gondii; details: read at 72 h post-infection
Protocol: as §1, §2

[6] = system: N. caninum NcSpain-7 tachyzoites; details: in vivo
Protocol: A total of 57 BALB/c mice were used: 38 females and 19 males, all 8 weeks old. […] For the infection, NcSpain-7 tachyzoites were cultured in HFF at 37 °C/5% CO₂ and transferred to BALB/c fibroblasts to be grown under the same conditions for three days prior to infection. Parasites were then collected and counted, and each mouse was infected by subcutaneous injection with 10⁵ NcSpain-7 tachyzoites suspended in 100 μL PBS ([Arranz-Solís et al., 2015]). Infection took place on day 7 post-mating. Pregnant and non-pregnant mice were separated as described for the toxoplasmosis model and evaluated for clinical signs and mortality rates. Pregnant mice gave birth on days 20–23 post-mating. […]
Brains of adult mice and surviving pups were collected directly after sacrifice and parasitic load was quantified by real-time PCR specific for T. gondii ([Costa et al., 2000]) and N. caninum ([Müller et al., 2002]). […] DNA was extracted from all samples using the Nucleospin Kit (Macherey-Nagel, Oensingen, Switzerland) and QuantiFluor dsDNA System (Promega, Madison, Wi, USA) was used to determine the DNA concentration. […] Quantitative real-time PCR was performed using the Light Cycler® System (Roche, Basel, Switzerland). Parasite load was calculated by interpolation from a standard curve of DNA samples from 1000, 100 and 10 T. gondii or N. caninum tachyzoites included in each run. […]

CC(C)(C)n1nc(Cc2cccc3ccccc23)c2c(N)ncnc21 [1NM-PP1]
Morphological effect on T. gondii ([1]; ref Sugi et al., 2016): Multinucleated forms

CCOc1ccc2cc(-c3nn(CC4CCN(C)CC4)c4ncnc(N)c34)ccc2c1 [BKI-1294]
Pup survival rate [2]: 80% | Pups with detectable T. gondii DNA in their brain (%) [3]: 7% | Pups with detectable T. gondii DNA in their brain (number) [3]: 4 out of 55

N#CC(c1ccc(Cl)cc1)c1c(Cl)cc(-n2ncc(=O)[nH]c2=O)cc1Cl (stereo not drawn) [diclazuril]
Morphological effect on T. gondii ([1]; ref Lindsay et al., 1995): formation of multinucleated forms

CC(C)(CO)Cn1nc(-c2ccc3cc(OC4CC4)ccc3c2)c(C(N)=O)c1N [BKI-1708]
pIC50 ([4]; Neospora caninum, 72 h, read-out: IC50 Nc-β-gal Pre-infection, compound added concomitantly to infection of HFF): 6.32 | pIC50 ([4]; Neospora caninum, read-out: IC50 Nc-β-gal Post-infection, compound added 3 h after infection of HFF): 6.02 | pIC50 ([4]; read-out: IC50 Nc-β-gal Pre-infection, compound added concomitantly to infection of HFF): 6.32 | pIC50 ([5]; Toxoplasma gondii, 72 h, read-out: IC50 Tg-β-gal Pre-infection, compound added concomitantly to infection of HFF): 6.92 | pIC50 ([5]; Toxoplasma gondii, read-out: IC50 Tg-β-gal Post-infection, compound added 3 h after infection of HFF): 6.49 | pIC50 ([5]; read-out: IC50 Tg-β-gal Pre-infection, compound added concomitantly to infection of HFF): 6.91 | Vertical transmission rate (%) [6]: 38%

Reference: paper PMC11254172 (International Journal for Parasitology: Drugs and Drug …, 2024)
